Laboratory results: US5180735A, “Cyclohexanol derivatives, production and use thereof” (Takeda Chemical Industries, Ltd., priority 1989, dated 1993)

Experiments:
[1] = system: M5076 cells; test: Antitumor test in mice inoculated subcutaneously with M5076 cells (tumor size, T/C); format: in vivo, C57BL/6 mice; conditions: Mus musculus, M5076, sc, 312 h, 30 mg/kg, subcutaneous, 10 times in total; tumor size after 13 days; read-out: T/C (%) (ratio of tumor size to control group)
Procedure: C57BL/6 mice (a group consisting of 6 mice) were inoculated subcutaneously at the dorsolateral area with 2×10^6 M5076 cells, and then a test compound dissolved in a 5% gum arabic physiological saline solution was subcutaneously administered 10 times in total, i.e. 1st, 2nd, 4th, 5th, 6th, 7th, 8th, 9th, 11th and 12th day after the inoculation. After 13 days, the major axis (a) and the minor axis (b) of the tumor tissue were measured to determine the tumor size by the calculation formula of a×b^2 ×1/2. The ratio of the tumor size thus calculated to the tumor size of animals in the control group was shown by T/C (%).

[2] = system: angiogenesis due to bFGF (rat cornea); test: Angiogenesis inhibitory action by the rat cornea micropocket method; format: in vivo, male Sprague-Dawley rats; conditions: sustained release pellet, 20 μg sample, next to bFGF pellet (250 ng) in cornea; observed after 10 days
From the text: Angiogenesis inhibitory action by the rat cornea micropocket method
Essentially the same method of Gimbrone et al. [J. National Cancer Institute 52:413-419 (1974)] was follows.
Specifically, adult male Sprague-Dawley rats (11 to 16 week old) were anesthetized with nembtal and locally anesthetized by instillation of xylocaine eyedrops onto the eyeball. The cornea was incised to a length of about 2 mm at about 2 mm inside from the corneal circumference by means of an injection needle, and a basic fibroblast growth factor (bFGF, bovine brain-derived, purified product, R & D Inc.) and a sustained release pellet containing the test sample were inserted side by side into the incision so that the bFGF pellet was located on the central side in the cornea. In the control group, the bFGF pellet and a sample-free pellet were inserted into the cornea. After 10 days, the cornea was observed under a stereoscopic microscope.
The sustained release pellets were prepared in the following manner. An ethylene-vinyl acetate copolymer (Takeda Chemical Industries, Ltd.) was dissolved in dichloromethane to a concentration of 8%. A 3 μl portion of the solution was air-dried on a glass dish, an aqueous solution of bFGF (250 ng) was then placed thereon and air-dried and, finally 3 μl of the above-mentioned ethylene-vinyl acetate copolymer solution was placed further thereon and air-dried to give a sandwich sheet. This sandwich sheet was made round into a bFGF pellet. The test sample pellets were prepared by dissolving each sample in ethanol to a concentration of 20 μg/2 μl, mixing the solution with 6 μl of an ethylene-vinyl acetate copolymer solution, air-drying the mixed solution on a glass dish and making the thus-obtained sheet round.
In the above Table 1, the number of rats subjected to the test was shown by denominator, and the number of rats whose […] due to bFGF was retarded or weakened by administration of the test sample was shown by numerator. In the judgment, +means an inhibition rate of 70% or more, and ±means that of less than 70% but exceeding 40%.

## C=C(C)C(=O)NC(=O)O[C@@H]1CC[C@](O)(CCl)[C@@H]([C@@]2(C)O[C@@H]2CC=C(C)C)[C@@H]1OC [Example 3, 4-O-(methacryloylcarbamoyl)-2-(1,2-epoxy-1,5-dimethyl-4-hexenyl)-3-methoxy-1-chloromethyl-1,4-cyclohexanediol]
[1]
  response vs control in vivo at 30 mg/kg: 36%
[2]
  Inhibitory Rate (rats whose angiogenesis due to bFGF was retarded or weakened / rats subjected to the test): 4/7
  Judgment (Angiogenesis Inhibitory Activity): ± (that of less than 70% but exceeding 40%)
